Structures are written as SMILES.

The nature of the first data set: Oral bioavailability in human. The conditions noted are these: in vivo.
Regarding `CC(C)N(CC[C@](C(N)=O)(c1ccccc1)c1ccccn1)C(C)C` [(S)-DISOPYRAMIDE], the bioavailability stood at 83%.

`COc1c(N2CCN[C@@H](C)C2)c(F)cc2c(=O)c(C(=O)O)cn(C3CC3)c12` [(S)-GATIFLOXACIN] gave a bioavailability of 96%.

For the compound `O=C1Nc2ccc(Cl)cc2C(c2ccccc2Cl)=N[C@H]1O` [(S)-LORAZEPAM], the bioavailability came to 93%.

Compound `CN1C(=O)[C@H](O)N=C(c2ccccc2Cl)c2cc(Cl)ccc21` [(S)-LORMETAZEPAM] had a bioavailability of 75%.

Regarding `CC[C@]1(c2ccccc2)C(=O)NC(=O)N(C)C1=O` [(S)-METHYLPHENOBARBITAL], the bioavailability is 73%.

With `COc1ccc([C@@H](CN(C)C)C2(O)CCCCC2)cc1` [(S)-VENLAFAXINE], the bioavailability is 45%.

In the case of `CC(C)C[C@H]1C(=O)N2CCC[C@H]2[C@]2(O)O[C@](NC(=O)[C@@H]3C=C4c5cccc6[nH]c(Br)c(c56)C[C@H]4N(C)C3)(C(C)C)C(=O)N12` [BROMOCRIPTINE], the bioavailability was found to be 4.5%.

`O=C(O)CCCc1ccc(N(CCCl)CCCl)cc1` [CHLORAMBUCIL] gave a bioavailability of 87%.

The compound `CN/C(=N/CCSCc1nc[nH]c1C)NC#N` [CIMETIDINE] registered a bioavailability of 60%.

The compound `C[N+]1(CC2CC2)[C@@H]2C[C@@H](OC(=O)[C@H](CO)c3ccccc3)C[C@H]1[C@@H]1O[C@@H]12.[Br-]` (some centres not stated) [CIMETROPIUM BROMIDE] returned a bioavailability of 2%.

In turn, `O=C1CN=C(c2ccccc2Cl)c2cc([N+](=O)[O-])ccc2N1` [CLONAZEPAM] gave a bioavailability of 90%.

For the compound `CN1CCN(C2=Nc3cc(Cl)ccc3Nc3ccccc32)CC1` [CLOZAPINE], the bioavailability worked out at 55%.

`COc1ccc2c3c1O[C@H]1[C@@H](O)C=C[C@H]4[C@@H](C2)N(C)CC[C@@]341` [CODEINE] came in with a bioavailability of 55%.

`O=P1(N(CCCl)CCCl)NCCCO1` (configuration not stated) [CYCLOPHOSPHAMIDE ANHYDROUS] yielded a bioavailability of 74%.

On to `CCN[C@@H](C)Cc1cccc(C(F)(F)F)c1` [DEXFENFLURAMINE], for which the bioavailability turned out to be 89%.

The compound `C[C@H]1O[C@@H](O[C@H]2[C@@H](O)C[C@H](O[C@H]3[C@@H](O)C[C@H](O[C@H]4CC[C@@]5(C)[C@H](CC[C@@H]6[C@@H]5CC[C@]5(C)[C@@H](C7=CC(=O)OC7)CC[C@]65O)C4)O[C@@H]3C)O[C@@H]2C)C[C@H](O)[C@@H]1O` [DIGITOXIN] gave a bioavailability of 88.5%.

As for `CC(C)C[C@H]1C(=O)N2CCC[C@H]2[C@]2(O)O[C@@](C)(NC(=O)[C@@H]3CC4c5cccc6[nH]cc(c56)C[C@H]4N(C)C3)C(=O)N12` (some centres not stated) [DIHYDROERGOSINE], the bioavailability worked out at 10%.

Turning to `CC(C)N(CC[C@@](C(N)=O)(c1ccccc1)c1ccccn1)C(C)C` [DISOPIRAMIDE], the bioavailability amounted to 83%.

Still in this data set, the particulars now being: in vivo, F.
For `O[C@@](CCN1CCCC1)(c1ccccc1)C1CCCCC1` [(R)-PROCYCLIDINE], the bioavailability stood at 75%.

Turning to `CCC(=O)c1ccc2c(c1)N(C[C@@H](C)N(C)C)c1ccccc1S2` [(R)-PROPIOMAZINE], the bioavailability turned out to be 33%.

`C[C@@H](O)Cn1cnc2c1c(=O)n(C)c(=O)n2C` [(R)-PROXYPHYLLINE] returned a bioavailability of 100%.

`C[C@@H](C(=O)O)c1ccc(C(=O)c2cccs2)cc1` [(R)-SUPROFEN] yielded a bioavailability of 92%.

In turn, `Cc1cccc(C)c1NC(=O)[C@@H](C)N` [(R)-TOCAINIDE] gave a bioavailability of 89%.

With `Cc1cccc(OC[C@H](O)CNC(C)C)c1` [(R)-TOLIPROLOL], the bioavailability turned out to be 90%.

Compound `CC(C)[C@H](N)C(=O)OC[C@@H](CO)OCn1cnc2c(=O)nc(N)[nH]c21` [(R)-VALGANCICLOVIR] showed a bioavailability of 59.4%.

`CC(C)(C)NC[C@@H](O)c1ccc(O)c(CO)c1` [(S)-ALBUTEROL] had a bioavailability of 71%.

`CCc1cccc2cc([C@@H](O)CNC(C)(C)C)oc12` [(S)-BUFURALOL] showed a bioavailability of 46%.

`CCN1C[C@@H](CCN2CCOCC2)C(c2ccccc2)(c2ccccc2)C1=O` [(S)-DOXAPRAM] returned a bioavailability of 61%.

In turn, `CCOC(=O)C1=C(C)NC(C)=C(C(=O)OC)[C@@H]1c1cccc(Cl)c1Cl` [(S)-FELODIPINE] came in with a bioavailability of 15%.

For the compound `COC(=O)C1=C(C)NC(C)=C(C(=O)OC(C)C)[C@H]1c1cccc2nonc12` [(S)-ISRADIPINE], the bioavailability is 19.5%.

In turn, `Cc1cc2c(OC[C@@H](O)CNC(C)C)cccc2[nH]1` [(S)-MEPINDOLOL] showed a bioavailability of 82%.

`Cc1cccc(C)c1OC[C@H](C)N` [(S)-MEXILETINE]: the bioavailability worked out at 87%.

In turn, `COc1ccc(OC)c([C@H](O)CNC(=O)CN)c1` [(S)-MIDODRINE] displayed a bioavailability of 93%.

`CC(C)[C@H]1CC[C@H](C(=O)N[C@@H](Cc2ccccc2)C(=O)O)CC1` [(S)-NATEGLINIDE]: the bioavailability worked out at 73%.

In turn, `CCOC(=O)C1=C(C)NC(C)=C(C(=O)OC)[C@@H]1c1cccc([N+](=O)[O-])c1` [(S)-NITRENDIPINE] had a bioavailability of 16%.

Take `Cc1nccn1C[C@@H]1CCc2c(c3ccccc3n2C)C1=O` [(S)-ONDANSETRON]: the bioavailability turned out to be 62%.

As to `O[C@](CCN1CCCC1)(c1ccccc1)C1CCCCC1` [(S)-PROCYCLIDINE], the bioavailability was 75%.

`C[C@@H](CN1c2ccccc2Sc2ccccc21)N(C)C` [(S)-PROMETHAZINE] registered a bioavailability of 25%.

As for `C[C@H](O)Cn1cnc2c1c(=O)n(C)c(=O)n2C` [(S)-PROXYPHYLLINE], the bioavailability stood at 100%.

With `C[C@H](C(=O)O)c1ccc(C(=O)c2cccs2)cc1` [(S)-SUPROFEN], the bioavailability is 92%.

`Cc1cccc(OC[C@@H](O)CNC(C)C)c1` [(S)-TOLIPROLOL] returned a bioavailability of 90%.

As for `CC(C)[C@H](N)C(=O)OC[C@H](CO)OCn1cnc2c(=O)nc(N)[nH]c21` [(S)-VALGANCICLOVIR], the bioavailability was found to be 59.4%.

`CC(=O)Nc1ccc(O)cc1` [ACETAMINOPHEN]: the bioavailability came out at 88%.

In the case of `CN(C)CCc1c[nH]c2ccc(CS(=O)(=O)N3CCCC3)cc12` [ALMOTRIPTAN], the bioavailability was 70%.

Compound `Cc1[nH]cnc1CN1CCc2c(c3ccccc3n2C)C1=O` [ALOSETRON] gave a bioavailability of 55%.

Compound `CC(C)(C#N)c1cc(Cn2cncn2)cc(C(C)(C)C#N)c1` [ANASTROZOLE] returned a bioavailability of 84%.

For the compound `CC(=O)Oc1ccccc1C(=O)O` [ASPIRIN], the bioavailability was determined as 68%.

On to `CNCC[C@@H](Oc1ccccc1C)c1ccccc1` [ATOMOXETINE], for which the bioavailability turned out to be 63%.

As to `O=C1C(O)=C([C@H]2CC[C@H](c3ccc(Cl)cc3)CC2)C(=O)c2ccccc21` [ATOVAQUONE], the bioavailability stood at 23%.

For the compound `COc1ccccc1Oc1c(NS(=O)(=O)c2ccc(C(C)(C)C)cc2)nc(-c2ncccn2)nc1OCCO` [BOSENTAN], the bioavailability worked out at 50%.

With `CCCC1O[C@@H]2C[C@H]3[C@@H]4CCC5=CC(=O)C=C[C@]5(C)[C@H]4[C@@H](O)C[C@]3(C)[C@]2(C(=O)CO)O1` (some centres not stated) [BUDESONIDE], the bioavailability came out at 11%.

On to `CCCCNc1cc(C(=O)O)cc(S(N)(=O)=O)c1Oc1ccccc1` [BUMETANIDE], for which the bioavailability was determined as 81%.

Consider `CS(=O)(=O)OCCCCOS(C)(=O)=O` [BUSULFAN], for which the bioavailability was 80%.

Compound `Cn1c(=O)c2c(ncn2C)n(C)c1=O` [CAFFEINE] registered a bioavailability of 100%.

In turn, `N[C@@H](C(=O)N[C@@H]1C(=O)N2C(C(=O)O)=C(Cl)CS[C@H]12)c1ccccc1` [CEFACLOR ANHYDROUS] came in with a bioavailability of 90%.

For `Cc1nnc(SCC2=C(C(=O)O)N3C(=O)[C@@H](NC(=O)Cn4cnnn4)[C@H]3SC2)s1` [CEFAZOLIN], the bioavailability was found to be 90%.

On to `CCCCCCCCCCCCCCCC(=O)OC[C@@H](NC(=O)C(Cl)Cl)[C@H](O)c1ccc([N+](=O)[O-])cc1` [CHLORAMPHENICOL PALMITATE], for which the bioavailability was determined as 80%.

With `O=C(N[C@H](CO)[C@H](O)c1ccc([N+](=O)[O-])cc1)C(Cl)Cl` [CHLORAMPHENICOL], the bioavailability is 69%.

With `CN(C)[C@@H]1C(O)=C(C(N)=O)C(=O)[C@@]2(O)C(O)=C3C(=O)c4c(O)ccc(Cl)c4[C@@](C)(O)[C@H]3C[C@@H]12` [CHLORTETRACYCLINE], the bioavailability was found to be 27.5%.

Compound `CC[C@H]1OC(=O)[C@H](C)[C@@H](O[C@H]2C[C@@](C)(OC)[C@@H](O)[C@H](C)O2)[C@H](C)[C@@H](O[C@@H]2O[C@H](C)C[C@H](N(C)C)[C@H]2O)[C@](C)(OC)C[C@@H](C)C(=O)[C@H](C)[C@@H](O)[C@]1(C)O` [CLARITHROMYCIN] gave a bioavailability of 50%.

Regarding `O=C(O)[C@H]1/C(=C/CO)O[C@@H]2CC(=O)N21` [CLAVULANIC ACID], the bioavailability was found to be 75%.

Compound `CCOC(=O)C(C)(C)Oc1ccc(Cl)cc1` [CLOFIBRATE] gave a bioavailability of 95%.

The compound `Clc1cccc(Cl)c1N=C1NCCN1` [CLONIDINE] yielded a bioavailability of 60%.

The compound `Cc1onc(-c2ccccc2Cl)c1C(=O)N[C@@H]1C(=O)N2[C@@H]1SC(C)(C)[C@@H]2C(=O)O` [CLOXACILLIN] had a bioavailability of 37%.

`Nc1ccc(S(=O)(=O)c2ccc(N)cc2)cc1` [DAPSONE] registered a bioavailability of 93%.

On to `CC(C)Nc1cccnc1N1CCN(C(=O)c2cc3cc(NS(C)(=O)=O)ccc3[nH]2)CC1` [DELAVIRDINE], for which the bioavailability came to 96%.

On to `CC(C)Cc1ccc([C@H](C)C(=O)O)cc1` [DEXIBUPROFEN], for which the bioavailability was found to be 80%.

`CC(C)NC[C@@H](O)c1ccc(NS(C)(=O)=O)cc1` [DEXSOTALOL] yielded a bioavailability of 60%.

`C[C@@H]1COc2c(N3CCN(C)CC3)c(F)cc3c(=O)c(C(=O)O)cn1c23` [DEXTROFLOXACINE] yielded a bioavailability of 97.5%.

`O=C(O)c1cc(-c2ccc(F)cc2F)ccc1O` [DIFLUNISAL] had a bioavailability of 100%.

With `C[C@H]1O[C@@H](O[C@H]2[C@@H](O)C[C@H](O[C@H]3[C@@H](O)C[C@H](O[C@H]4CC[C@@]5(C)[C@H](CC[C@@H]6[C@@H]5C[C@@H](O)[C@]5(C)[C@@H](C7=CC(=O)OC7)CC[C@]65O)C4)O[C@@H]3C)O[C@@H]2C)C[C@H](O)[C@@H]1O` [DIGOXIN], the bioavailability amounted to 95%.

`COc1ccc([C@@H]2Sc3ccccc3N(CCN(C)C)C(=O)[C@@H]2OC(C)=O)cc1` [DILTIAZEM] yielded a bioavailability of 40%.
